Data taken from PubChem BioAssay (NCI).
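Briefly, cells in 96-well plates were exposed to five compound concentrations for 48 h, and endpoints were estimated by linear interpolation. GI50 marks 50% less growth. TGI is the concentration that stops growth completely.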

Tests used:
Assay in all cases: NCI-60 cell line screen, 48 h
MDA-MB-435 = test system: MDA-MB-435
SW-620 colon = test system: SW-620 colon
CAKI-1 renal = test system: CAKI-1 renal
SNB-19 CNS = test system: SNB-19 CNS
U251 CNS = test system: U251 CNS
NCI-H522 lung = test system: NCI-H522 lung
RXF 393 renal = test system: RXF 393 renal
TK-10 renal = test system: TK-10 renal
BT-549 breast = test system: BT-549 breast
SF-539 CNS = test system: SF-539 CNS
OVCAR-3 ovarian = test system: OVCAR-3 ovarian
A498 renal = test system: A498 renal
NCI-H23 lung = test system: NCI-H23 lung
SK-MEL-5 melanoma = test system: SK-MEL-5 melanoma
HCT-15 colon = test system: HCT-15 colon
MDA-MB-231 breast = test system: MDA-MB-231 breast
OVCAR-5 ovarian = test system: OVCAR-5 ovarian
LOX IMVI melanoma = test system: LOX IMVI melanoma
HL-60(TB) leukemia = test system: HL-60(TB) leukemia
HCT-116 colon = test system: HCT-116 colon
HCC-2998 colon = test system: HCC-2998 colon
NCI-H226 lung = test system: NCI-H226 lung
HT29 colon = test system: HT29 colon
786-0 renal = test system: 786-0 renal
MOLT-4 leukemia = test system: MOLT-4 leukemia
A549 NSCLC = test system: A549 NSCLC
SK-OV-3 ovarian = test system: SK-OV-3 ovarian
DU-145 prostate = test system: DU-145 prostate
MCF7 breast = test system: MCF7 breast
PC-3 prostate = test system: PC-3 prostate
HOP-92 NSCLC = test system: HOP-92 NSCLC
UO-31 renal = test system: UO-31 renal
SN12C renal = test system: SN12C renal
IGROV1 ovarian = test system: IGROV1 ovarian
NCI-H460 lung = test system: NCI-H460 lung
COLO 205 colon = test system: COLO 205 colon
K-562 leukemia = test system: K-562 leukemia
SK-MEL-28 melanoma = test system: SK-MEL-28 melanoma
OVCAR-8 ovarian = test system: OVCAR-8 ovarian
HS 578T breast = test system: HS 578T breast
SF-268 CNS = test system: SF-268 CNS
UACC-62 melanoma = test system: UACC-62 melanoma
CCRF-CEM leukemia = test system: CCRF-CEM leukemia
T-47D breast = test system: T-47D breast
KM12 colon = test system: KM12 colon
SK-MEL-2 melanoma = test system: SK-MEL-2 melanoma
SF-295 CNS = test system: SF-295 CNS
ACHN renal = test system: ACHN renal
SNB-75 CNS = test system: SNB-75 CNS
NCI/ADR-RES ovarian = test system: NCI/ADR-RES ovarian
MALME-3M melanoma = test system: MALME-3M melanoma
OVCAR-4 ovarian = test system: OVCAR-4 ovarian
HOP-62 NSCLC = test system: HOP-62 NSCLC
RPMI-8226 leukemia = test system: RPMI-8226 leukemia

For COC(=O)C(N)CSC(c1ccccc1)(c1ccccc1)c1ccccc1 (stereo not drawn), the GI50 (MDA-MB-435) was 247 nM, the TGI (MDA-MB-435) was 644 nM and the GI50 (SW-620 colon) was 679 nM. It also gave a TGI (SW-620 colon) greater than 100 µM, a GI50 (CAKI-1 renal) of 5.51 µM and a TGI (CAKI-1 renal) greater than 100 µM. It also gave a GI50 (SNB-19 CNS) of 1580 nM, a TGI (SNB-19 CNS) greater than 100 µM and a GI50 (U251 CNS) of 610 nM. For the same compound, the TGI (U251 CNS) was greater than 100 µM, the GI50 (NCI-H522 lung) was 334 nM and the TGI (NCI-H522 lung) was 2220 nM. For the same compound, the GI50 (RXF 393 renal) was 303 nM, the TGI (RXF 393 renal) was 11.7 µM and the GI50 (TK-10 renal) was 7.04 µM. The TGI (TK-10 renal) was 83.5 µM, the GI50 (BT-549 breast) was 2290 nM and the TGI (BT-549 breast) was 53.3 µM. The GI50 (SF-539 CNS) was 399 nM, the TGI (SF-539 CNS) was 3.53 µM and the GI50 (OVCAR-3 ovarian) was 2970 nM. It also gave a TGI (OVCAR-3 ovarian) of 44.8 µM, a GI50 (A498 renal) of 629 nM and a TGI (A498 renal) of 54 µM. It also gave a GI50 (NCI-H23 lung) of 4.45 µM, a TGI (NCI-H23 lung) greater than 100 µM and a GI50 (SK-MEL-5 melanoma) of 538 nM. For the same compound, the TGI (SK-MEL-5 melanoma) was 26.9 µM, the GI50 (HCT-15 colon) was 2700 nM and the TGI (HCT-15 colon) was greater than 100 µM. It also gave a GI50 (MDA-MB-231 breast) of 1620 nM, a TGI (MDA-MB-231 breast) of 25.4 µM and a GI50 (OVCAR-5 ovarian) of 3.84 µM. It also gave a TGI (OVCAR-5 ovarian) greater than 100 µM, a GI50 (LOX IMVI melanoma) of 4.48 µM and a TGI (LOX IMVI melanoma) greater than 100 µM. The GI50 (HL-60(TB) leukemia) was 1820 nM, the TGI (HL-60(TB) leukemia) was 8.48 µM and the GI50 (HCT-116 colon) was 418 nM. It also gave a TGI (HCT-116 colon) of 34.4 µM, a GI50 (HCC-2998 colon) of 2100 nM and a TGI (HCC-2998 colon) of 29.9 µM. For the same compound, the GI50 (NCI-H226 lung) was 5.38 µM, the TGI (NCI-H226 lung) was greater than 100 µM and the GI50 (HT29 colon) was 3.36 µM. For the same compound, the TGI (HT29 colon) was 59.6 µM, the GI50 (786-0 renal) was 4.23 µM and the TGI (786-0 renal) was 86.5 µM. For the same compound, the GI50 (MOLT-4 leukemia) was 4 µM, the TGI (MOLT-4 leukemia) was greater than 100 µM and the GI50 (A549 NSCLC) was 2930 nM. For the same compound, the TGI (A549 NSCLC) was greater than 100 µM, the GI50 (SK-OV-3 ovarian) was 607 nM and the TGI (SK-OV-3 ovarian) was greater than 100 µM. It also gave a GI50 (DU-145 prostate) of 3.26 µM, a TGI (DU-145 prostate) greater than 100 µM and a GI50 (MCF7 breast) of 445 nM. The TGI (MCF7 breast) was greater than 100 µM, the GI50 (PC-3 prostate) was 1720 nM and the TGI (PC-3 prostate) was greater than 100 µM. The GI50 (HOP-92 NSCLC) was 436 nM, the TGI (HOP-92 NSCLC) was 13.2 µM and the GI50 (UO-31 renal) was 9.93 µM. It also gave a TGI (UO-31 renal) greater than 100 µM, a GI50 (SN12C renal) of 863 nM and a TGI (SN12C renal) greater than 100 µM. It also gave a GI50 (IGROV1 ovarian) of 9.86 µM, a TGI (IGROV1 ovarian) greater than 100 µM and a GI50 (NCI-H460 lung) of 2420 nM. For the same compound, the TGI (NCI-H460 lung) was 43.8 µM, the GI50 (COLO 205 colon) was 2150 nM and the TGI (COLO 205 colon) was greater than 100 µM. For the same compound, the GI50 (K-562 leukemia) was 630 nM, the TGI (K-562 leukemia) was greater than 100 µM and the GI50 (SK-MEL-28 melanoma) was 3.14 µM. For the same compound, the TGI (SK-MEL-28 melanoma) was greater than 100 µM, the GI50 (OVCAR-8 ovarian) was 2530 nM and the TGI (OVCAR-8 ovarian) was greater than 100 µM. It also gave a GI50 (HS 578T breast) of 512 nM, a TGI (HS 578T breast) of 15 µM and a GI50 (SF-268 CNS) of 1040 nM. The TGI (SF-268 CNS) was greater than 100 µM, the GI50 (UACC-62 melanoma) was 2180 nM and the TGI (UACC-62 melanoma) was greater than 100 µM. The GI50 (CCRF-CEM leukemia) was 636 nM, the TGI (CCRF-CEM leukemia) was greater than 100 µM and the GI50 (T-47D breast) was 4.62 µM. The TGI (T-47D breast) was greater than 100 µM, the GI50 (KM12 colon) was 2880 nM and the TGI (KM12 colon) was 53.5 µM. The GI50 (SK-MEL-2 melanoma) was 493 nM, the TGI (SK-MEL-2 melanoma) was 5.72 µM and the GI50 (SF-295 CNS) was 2890 nM. For the same compound, the TGI (SF-295 CNS) was greater than 100 µM, the GI50 (ACHN renal) was 922 nM and the TGI (ACHN renal) was greater than 100 µM. It also gave a GI50 (SNB-75 CNS) of 3.68 µM, a TGI (SNB-75 CNS) of 41.6 µM and a GI50 (NCI/ADR-RES ovarian) of 8.81 µM. The TGI (NCI/ADR-RES ovarian) was 73.5 µM, the GI50 (MALME-3M melanoma) was 4.7 µM and the TGI (MALME-3M melanoma) was 74 µM. It also gave a GI50 (OVCAR-4 ovarian) of 15.5 µM, a TGI (OVCAR-4 ovarian) greater than 100 µM and a GI50 (HOP-62 NSCLC) of 48.9 µM. The TGI (HOP-62 NSCLC) was greater than 100 µM, the GI50 (RPMI-8226 leukemia) was 676 nM and the TGI (RPMI-8226 leukemia) was 28.5 µM.
